Test results as given in the supplement of paper PMC4858399.
Where a name gives a salt, the structure may show the parent alone.

Legend:
[1] = tested on: Caenorhabditis elegans N2; assay: lowest effective concentration for larval growth inhibition (size below effect threshold); higher = less potent; details: exposure time 48 h
Outline: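 L1 larvae of C. elegans N2 (50 per 96-well) were grown in K-medium with killed bacteria and 1% DMSO, with the chemical at 0.5, 1, 5, 10, 50, 100 or 200 µM, for 48 h at 20°C. Per-worm extinction from the Biosort stood for size and was log-transformed into well means. For each chemical, the lowest effective concentration is the first dose where plate-adjusted mean size falls under the threshold and stays under it at the higher doses, using a threshold of 5.665.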

[2] = tested on: Caenorhabditis elegans N2; assay: mean nematode size ln(EXT) after 48 h, plate-adjusted (DMSO control set to 6) (ln(EXT), control-adjusted); higher = larger nematodes / less growth inhibition; details: exposure time 48 h
Outline: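 In K-medium with killed OP50, 1% DMSO and 0.5–200 µM chemical, synchronised N2 L1 larvae of C. elegans (50 per well) grew for 48 h at 20°C. Extinction was read for every worm on the Biosort, with debris removed by a growth model. Natural-log values averaged per well gave mean size, which was corrected per plate by subtracting the vehicle control mean and adding 6.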

Row | Structure (SMILES) | lowest effective concentration [1] | mean nematode size ln(EXT) (ln) ([2]; 0.5 µM) | mean nematode size ln(EXT) (ln) ([2]; 1 µM) | mean nematode size ln(EXT) (ln) ([2]; 5 µM) | mean nematode size ln(EXT) (ln) ([2]; 10 µM) | mean nematode size ln(EXT) (ln) ([2]; 50 µM) | mean nematode size ln(EXT) (ln) ([2]; 100 µM) | mean nematode size ln(EXT) (ln) ([2]; 200 µM)
1 | COCC(=O)N(c1c(C)cccc1C)C(C)C(=O)OC (centres undefined) [Metalaxyl] | > 200 µM | 6.15 | 6.19 | 6.16 | 6 | 6.14 | 6.18 | 5.98
2 | O=c1[nH]cnc2c1ncn2[C@H]1CC[C@@H](CO)O1 [Didanosine] | > 200 µM | 5.88 | 5.86 | 5.85 | 5.84 | 5.89 | 5.96 | 5.76
3 | CCCCCCCCO [1-Octanol] | > 200 µM | 6.08 | 5.99 | 6.03 | 6.07 | 5.95 | 5.95 | 5.81
4 | O=c1ccc(=O)[nH][nH]1 [Maleic hydrazide] | > 200 µM | 6.04 | 5.94 | 5.94 | 5.96 | 5.96 | 5.9 | 6.03
5 | O=C(O)C(Cl)Cl [Dichloroacetic acid] | > 200 µM | 5.56 | 5.97 | 6.02 | 5.89 | 5.98 | 5.92 | 5.7
6 | CN(C)c1ccccc1 [N,N-Dimethylaniline] | > 200 µM | 5.97 | 6.02 | 6.03 | 6.01 | 6.08 | 6.02 | 5.73
7 | CC(=O)OCC(COC(C)=O)OC(C)=O [Triacetin] | > 200 µM | 5.85 | 5.99 | 5.89 | 5.85 | 5.97 | 5.78 | 5.73
8 | CC(=O)c1ccccc1 [Acetophenone] | > 200 µM | 6 | 6.01 | 6.03 | 6.08 | 6.16 | 6.11 | 5.78
9 | COC(=O)CCCC(=O)OC [Dimethyl glutarate] | > 200 µM | 5.91 | 5.94 | 5.9 | 6.02 | 6.01 | 6.04 | 5.78
10 | O=Cc1ccco1 [Furfural] | > 200 µM | 5.92 | 5.88 | 5.88 | 5.91 | 5.95 | 5.83 | 5.82
11 | CC1(C)C(C=C(Cl)Cl)C1C(=O)OC(C#N)c1ccc(F)c(Oc2ccccc2)c1 (centres undefined) [Cyfluthrin] | > 200 µM | 6.09 | 6.69 | 6.12 | 6.22 | 6.18 | 6.44 | 5.7
12 | O=C(O)c1nc(Cl)ccc1Cl [Clopyralid-olamine] | > 200 µM | 5.87 | 5.89 | 5.95 | 5.89 | 5.88 | 5.98 | 5.95
13 | O=C1NS(=O)(=O)c2ccccc21.[Na] [Saccharin sodium salt hydrate] | > 200 µM | 5.88 | 5.93 | 5.96 | 5.9 | 5.89 | 5.9 | 5.79
14 | O=C(O)c1cc(/N=N/c2ccc(S(=O)(=O)Nc3ccccn3)cc2)ccc1O [Sulfasalazine] | > 200 µM | 5.85 | 5.91 | 5.87 | 5.87 | 5.92 | 5.9 | 5.94
15 | CC(CO)OC(C)CO.CC(O)COCC(C)O (centres undefined) [Dipropylene glycol] | > 200 µM | 5.74 | 5.73 | 5.79 | 5.87 | 5.74 | 5.66 | 5.87
16 | Cc1ccc(C)c(O)c1 [2,5-Dimethylphenol] | > 200 µM | 5.86 | 5.95 | 5.74 | 5.83 | 5.95 | 5.83 | 5.72
17 | Cc1cc(O)ccc1Cl [4-Chloro-3-methylphenol] | > 200 µM | 5.83 | 5.8 | 5.79 | 5.82 | 5.85 | 5.78 | 5.68
18 | CC(C)(C)c1ccc(O)cc1 [4-tert-Butylphenol] | > 200 µM | 5.86 | 5.91 | 5.92 | 5.94 | 5.91 | 5.81 | 5.71
19 | CC(C)c1ccc(C(=O)N=C(N)N)cc1S(C)(=O)=O [Cariporide mesylate (HOE642)] | > 200 µM | 5.88 | 5.82 | 5.8 | 5.77 | 5.7 | 5.62 | 5.71
20 | CCOC(N)=O [Urethane (ethyl carbamate)] | > 200 µM | 5.96 | 5.93 | 5.97 | 6 | 5.95 | 5.91 | 5.97
21 | C=CC(N)=O [Acrylamide] | 200 µM | 6 | 5.68 | 5.69 | 5.76 | 5.89 | 5.76 | 5.65
22 | ClCCOCCCl [Bis(2-chloroethyl)ether] | > 200 µM | 5.78 | 6.14 | 5.94 | 5.96 | 5.8 | 5.86 | 5.72
23 | Oc1ccccc1O [Catechol] | > 200 µM | 5.94 | 5.82 | 5.86 | 5.84 | 5.9 | 5.95 | 5.72
24 | O=C1OC(=O)C2C3C=CC(C3)C12 (centres undefined) [4,7-Methanoisobenzofuran-1,3-dione, 3A,4,7,7A-tetrahydro-] | > 200 µM | 5.86 | 5.82 | 5.84 | 5.82 | 5.8 | 5.52 | 5.71
25 | CC1(C)NC(=O)NC1=O [5,5-Dimethylhydantoin] | > 200 µM | 5.74 | 5.99 | 6.06 | 5.91 | 5.97 | 5.93 | 5.79
26 | CCCC(=O)OCC [Ethyl butyrate] | > 200 µM | 5.9 | 5.93 | 5.96 | 6.03 | 5.94 | 5.91 | 5.82
27 | COc1cc2c(c(OC)c1OC)-c1ccc(OC)c(=O)cc1[C@@H](NC(C)=O)CC2 [Colchicine] | > 200 µM | 5.82 | 5.93 | 5.87 | 5.95 | 5.92 | 5.89 | 5.7
28 | Cc1nc(C)nc(N2C[C@@H](C)N(c3ccnc([C@@H](C)O)n3)[C@@H](C)C2)n1 | > 200 µM | 5.83 | 5.77 | 5.75 | 5.69 | 5.71 | 5.7 | 5.85
